Assay results reported in patent publication US4895867A, “2-(5-phenyl-2-furanyl)imidazoles useful as cardiotonic agents” (Norwich Eaton Pharmaceuticals, Inc., priority 1988, dated 1990).
Counter-ions that a name gives are not always drawn.

test system: guinea pig atrial muscle; test: In vitro guinea pig atrial muscle contractile force measurement (Test Method I); format: cell-based; conditions: Cavia porcellus; calculated concentration required to increase the contractile force by 50% from the control level; isolated left atria, 30° C., mean of at least three tissues
Text: Kaplan, "Strategy for the Discovery and Development of a Positive Inotropic Agent", Pharmacology and Therapeutics, Vol. 16 (1982), pp. 303-330. This test measures the effects of such compounds on the contractility of cardiac tissue excised from the atrial muscle of a guinea pig. In vitro guinea pig atrial muscle contractile force measurement Unfasted male Hartley albino guinea pigs, weighing 450-650 g (Charles River Breeding Laboratories, Inc., Wilmington, MA) were used in these studies. They were killed by cranial concussion at the beginning of the experiment. The heart was quickly removed into a Petri dish filled with a solution of the following composition (in water): NaCl 99.0 mM; Dextrose 11.0 mM; […]; MgSO4 1.2 mM; NaH2 PO4 1.3 mM; CaCl2.2H2 O 2.5 mM; NaHCO3 25.01 mM; bubbled with 95% 02 :5% CO2 at room temperature. A triple O silk ligature was tied to the edge of the left atrial appendage, using an intestinal needle. The appendage was cut off; a section was cut away from the wall which faced the heart, retaining a sheet of tissue from the outer face of the atrium. The tissue was mounted from a pair of point stimulating electrode hooks with 1 gram of tension in an organ bath maintained at 30° C. The ligature was tied to a Grass FT-103 force-displacement transducer, and responses were measured in grams of developed tension with a Grass Model 7 polygraph (Grass Instrument Co., Quincy, MA). The left atria were stimulated electrically with the following square wave parameters: 3 v; 4 msec 1 Hz, as soon as they were put into the baths. After a short time (3-5 minutes), voltage was increased until stable responses were obtained (10-25% above threshold). The tissues were allowed to equilibrate under such stimulation for at least 1 hour before experimentation. The test compounds were dissolved in water, if water soluble, or if not, in tetrahydrofurfuryl alcohol (Eastman D5C) or in an organic vehicle containing 90% polyethylene glycol, 6% ethanol, 3% propylene glycol and 1% H2 O). (Test compound solution concentrations were selected to keep injection volumes between 1 and 10 μl). Isoproterenol (0.54 to 5.4 nM) was given at the beginning of each experiment to confirm the viability and responsiveness of the tissues. Test agents were given in several graded doses in logarithmic increments. Responsiveness to isoproterenol was also assessed at the end of the experiment unless other positive drug responses were obtained near the end of the experiment. Results were expressed as percent change from control for contractile force. The EC50 value (calculated concentration required to increase the contractile force by 50% from the control level) for each tissue was obtained, where possible, by regression analysis. The mean of the EC50 values was obtained from at least three individual tissues for each compound tested. Compounds having the following chemical structure were tested for cardiotonic activity according to one or both of the above test methods: [drawing 3] Determinations of contractile force EC50 according to Test Method I and ventricular pressure ED50 according to Test Method II which have been obtained for the compounds are provided in Table I: […]

EC50 [µM] | Structure (SMILES)
33.4 | Fc1ccc(-c2ccc(-c3ncc[nH]3)o2)cc1 [Example 15]
21.2 | CCn1ccnc1-c1ccc(-c2ccccc2Br)o1 [Example 30, 2-[5-(2-Bromophenyl)-2-furanyl]-1-ethyl-1H-imidazole Hydrochloride]
22.9 | c1ccc(-c2ccc(-c3ncc[nH]3)o2)cc1 [Example 6]
0.5 | Cc1c[nH]c(-c2ccc(-c3ccc(Br)cc3)o2)n1 [Example 23, 2-[5-(4-Bromophenyl)-2-furanyl]-4-methyl-1H-imidazole Hydrochloride]
8 | Brc1ccc(-c2ccc(-c3ncc[nH]3)o2)c(Br)c1 [Example 21]
6.5 | FC(F)(F)c1cccc(-c2ccc(-c3ncc[nH]3)o2)c1 [Example 3]
5.4 | Clc1ccc(-c2ccc(-c3ncc[nH]3)o2)cc1Cl [Example 13]
1.9 | Cc1cc(Br)ccc1-c1ccc(-c2ncc[nH]2)o1 [Example 31, 2-[5-(4-Bromo-2-methylphenyl)-2-furanyl]-1H-imidazole Hydrochloride]
8.2 | COc1ccc(-c2ccc(-c3ncc[nH]3)o2)c([N+](=O)[O-])c1 [Example 17]
7.2 | Fc1ccccc1-c1ccc(-c2ncc[nH]2)o1 [Example 10]
> 100 | Cn1ccnc1-c1ccc(-c2ccc(Br)cc2)o1 [Example 22]
3.5 | Clc1ccc(-c2ccc(-c3ncc[nH]3)o2)cc1 [Example 2]
1.7 | Cc1c[nH]c(-c2ccc(-c3ccccc3Br)o2)n1 [Example 32, 2-[5-(2-Bromophenyl)-2-furanyl]-4-methyl-1H-imidazole Hydrochloride]
3.7 | Clc1ccccc1-c1ccc(-c2ncc[nH]2)o1 [Example 9]
> 100 | Brc1cccc(Br)c1-c1ccc(-c2ncc[nH]2)o1 [Example 24]
28.2 | FC(F)(F)c1ccccc1-c1ccc(-c2ncc[nH]2)o1 [Example 11]
60 | O=[N+]([O-])c1ccccc1-c1ccc(-c2ncc[nH]2)o1 [Example 5]

EC50 [µM] | Structure (SMILES)
21.1 | Cn1ccnc1-c1ccc(-c2ccccc2Br)o1 [Example 18]
1.3 | Clc1ccc(-c2ccc(-c3ncc[nH]3)o2)c(Cl)c1 [Example 12]
190 | COc1ccc(-c2ccc(-c3ncc[nH]3)o2)cc1OC [Example 4]
3.4 | COc1cc(-c2ccc(-c3ncc[nH]3)o2)ccc1Br [Example 29, 2-[5-(4-Bromo-3-methoxyphenyl)-2-furanyl]-1H-imidazole Hydrochloride]
> 100 | Cc1cn(C)c(-c2ccc(-c3ccc(Br)cc3)o2)n1 [Example 34, 2-[5-(4-Bromophenyl)-2-furanyl]-1,4-dimethyl-1H-imidazole Hydrochloride Hydrate]
28 | COc1ccc(-c2ccc(-c3ncc[nH]3)o2)cc1 [Example 28]
5.7 | Brc1ccccc1-c1ccc(-c2ncc[nH]2)o1 [Example 8, 2-[5-(2-Bromophenyl)-2-furanyl]imidazole Hydrochloride Tetartohydrate]
1.5 | Cc1ccc(-c2ccc(-c3ncc[nH]3)o2)c(Br)c1 [Example 25]
10.3 | Ic1ccc(-c2ccc(-c3ncc[nH]3)o2)cc1 [Example 27]
3.7 | Cc1ccc(-c2ccc(-c3ncc[nH]3)o2)cc1 [Example 19, 2-[5-(4-methylphenyl)-2-furanyl]-1H-imidazole hydrochloride]
4 | FC(F)(F)c1cc(-c2ccc(-c3ncc[nH]3)o2)ccc1Br [Example 26]
1.3 | Brc1ccc(-c2ccc(-c3ncc[nH]3)o2)cc1 [Example 14]
50.2 | Cc1cnc(-c2ccc(-c3ccc(Br)cc3)o2)n1C [Example 33, 2-[5-(4-Bromophenyl)-2-furanyl]-1,5-dimethyl-1H-imidazole Hydrochloride]
3 | FC(F)(F)c1ccc(-c2ccc(-c3ncc[nH]3)o2)cc1 [Example 16]
40 | CC(=O)c1ccc(-c2ccc(-c3ncc[nH]3)o2)cc1 [Example 7]
6.8 | CC(C)c1ccc(-c2ccc(-c3ncc[nH]3)o2)cc1 [Example 20, 2-[5-[4-(1-Methylethyl)phenyl]-2-furanyl]-1H-imidazole Hydrochloride]
260 | O=[N+]([O-])c1ccc(-c2ccc(-c3ncc[nH]3)o2)cc1 [Example 1]

test system: right ventricle of guinea pig; test: In vivo guinea pig ventricular pressure measurement (Test Method II); conditions: Cavia porcellus, iv; calculated dose required to increase the right ventricular pressure by 50% from the control level, anesthetized guinea pig
Experimental: An additional or alternative method for testing the cardiotonic activity of compounds of the present invention is set forth in the following reference: Beek, O. G., "A Small Animal Model for Monitoring Inotropic Responses to Cardiotonic Agents", Journal of Pharmacological Methods, Vol. 7 (1982), pp. 321-329. Right ventricular inotropic responses are measured in an anesthetized, close-chested guinea pig using a pressure-sensitive transducer inserted into the right ventricle of the heart via the right jugular vein.
In vivo guinea pig ventricular pressure measurement
Unfasted male Hartley albino guinea pigs, weighing 450-650 g (Charles River Breeding Laboratories, Inc., Wilmington, MA) were used in these studies. Under ethyl carbamate (urethane) anesthesia (1.25 g/kg i.p.), the trachea was cannulated through a mid-ventral cervical incision. The left carotid artery was cannulated with PE-50 tubing (Clay Adams Co., Parsippany, NJ) filled with 100 µg/ml heparin for blood pressure monitoring, and the left jugular vein was cannulated (catheter filled with saline) for drug administration. A 3Fr Millar Mikro-Tip ventricular pressure catheter (Millar instruments, Inc., Houston, Texas) was positioned in the right ventricle via the right jugular vein. A thoracotomy was performed and the guinea pig was respired by a rodent respirator (Model 680, Harvard Apparatus Co., Millis, MA) at a rate of 8 ml/stroke×40 strokes/minute. A modified Brodie strain gauge (Warren Research Products, Charleston, South Carolina) was sutured on the right ventricle parallel to, but avoiding, the intraventricular septum. The rectal body temperature of 37° C. was maintained by an electronic temperature controlled lamp. The animals were left undisturbed for 60 minutes before being used for an experiment.
A single i.v. bolus does of 0.3 μg/kg isoproterenol was administered followed by a 0.2 ml saline flush prior to and at the end of each experiment to check the viability and responsiveness of each animal. Usually a vehicle does in a volume equal to the single largest volume of compound to be administered was intravenously injected 20-30 minutes after the initial isoproterenol injection when parameters had returned to baseline levels. A non-cumulative dose response curve was determined for each compound using a minimum of 3 doses. Time between doses for all compounds was dependent upon the time needed for all parameters to return to baseline or stable levels. A minimum of 3 animals per dose level was tested for each compound.
Results were expressed as percent changes from pretreatment baseline for all parameters measured. The ED50 values of ventricular pressure changes (calculated dose required to increase the right ventricular pressure by 50% from the control level) of test compounds were determined by regression analysis.
Compounds having the following chemical structure were tested for cardiotonic activity according to one or both of the above test methods: [drawing 3] Determinations of contractile force EC50 according to Test Method I and ventricular pressure ED50 according to Test Method II which have been obtained for the compounds are provided in Table I: […]

Structure (SMILES) | ED50 [mg/kg]
c1ccc(-c2ccc(-c3ncc[nH]3)o2)cc1 [Example 6] | 1.98
Clc1ccc(-c2ccc(-c3ncc[nH]3)o2)cc1 [Example 2] | 0.31
O=[N+]([O-])c1ccccc1-c1ccc(-c2ncc[nH]2)o1 [Example 5] | 29.1
Clc1ccc(-c2ccc(-c3ncc[nH]3)o2)c(Cl)c1 [Example 12] | 2.05
COc1ccc(-c2ccc(-c3ncc[nH]3)o2)cc1OC [Example 4] | 3.16
Brc1ccccc1-c1ccc(-c2ncc[nH]2)o1 [Example 8, 2-[5-(2-Bromophenyl)-2-furanyl]imidazole Hydrochloride Tetartohydrate] | 0.8
